| SMILES | melting point [°C] |
| --- | --- |
| O=C(O)CCOc1cccc(F)c1 | 90 to 91 |
| Cc1cc2c(cc1O)C(C)(C)CC1(CC(C)(C)c3cc(OCCCO)c(C)cc3O1)O2 (stereo not drawn) | 175 to 177 |
| COc1ccc2c(c1)S(=O)(=O)N=CN2CCCl | 126 to 130 |
| CNC(=O)Nc1snc(S(C)=O)c1C(N)=O (stereo not drawn) | > 355 |
| COC(=O)C1CN(C(=O)c2cc(OC)c(OC)c(OC)c2)CCN1C(=O)OC(C)(C)C (stereo not drawn) | 163 to 164 |
| OCCCc1oc(-n2cncn2)nc1-c1ccc(Cl)cc1 | 139 to 140 |
| CSc1nc(C)cc(O)n1 | 149 |
| COc1cc(Nc2c(C#N)cnc3cc4cc(OCCN5CCC(O)CC5)c(OC)cc4cc23)c(Cl)cc1C | 210 to 215 |
| CCCCCCCCCCCCCCCCO[C@@H]1CCCO[C@H]1COCc1ccccc1 (relative stereo) | 28.5 to 29.5 |
| CCCCCCCC/C=C\CCCCCCCCOc1cccc(N(CC(=O)OC)CC(=O)OC)c1 | 36 to 37 |
| Nc1sc2c(c1C(=O)c1cc3ccccc3o1)CCCC2 | 86 to 89 |
| CCN(CC)CCNC(=O)c1cc2cc(I)ccc2[nH]1 | 208 to 210 |
| C[C@]1(COc2ccc(N3CCC(OCC=Cc4ccc(OC(F)(F)F)cc4)CC3)cc2)Cn2cc([N+](=O)[O-])nc2O1 | 214 to 217 |
| CC(C)(C)OC(=O)N1CCCC1C(=O)NCCC(N)=O (stereo not drawn) | 175 |
| CN(C)C1CN(c2cc3nc4c(cc3cc2F)c(=O)c(C(=O)O)cn4C2CC2)C1 | 264 |
| CC(C)(C)OC(=O)N1CC(CCl)c2c1cc(O)c1ncccc21 (stereo not drawn) | 148 to 149 |
| Cc1cc(C(O)(C(F)(F)F)C(F)(F)F)cc(C)c1S | 62 to 64 |
| COc1ccnc(CCc2nc3cc(-c4ccc(OC)c(OC)c4)cnc3[nH]2)c1 | 185 to 186 |
| Cc1noc(NS(=O)(=O)c2ccc(C(C)(C)C)cc2)c1C | 151 to 154 |
| COc1cc2cc(C3CCCC3)sc2c(Cl)c1Cl | 59.5 to 60 |
| CC(C)N[C@H](CO)Cc1ccccc1 | 65 to 66 |
| COc1c(C)c(C)c(OC)c(CN2C(=O)C3CCCC3=Nc3ccccc32)c1C (stereo not drawn) | 202 to 204 |
| c1cnc2c(c1)-c1ncccc1C2(Cc1ccncc1)Cc1ccncc1 | 133 to 137 |
| Cn1ncnc1COc1nn2c(-c3cccs3)nncc2c1-c1ccccc1 | 209 |

| SMILES | melting point [°C] |
| --- | --- |
| CCc1c(C)c(NC(=O)CC(C)(C)C)c(C)c2c1OCC2c1ccc(C(C)C)cc1 (stereo not drawn) | 135 to 136 |
| CC1(C)CCC(C)(C)c2cc(CC#Cc3ccc(CO)c(O)c3)ccc21 | 94 to 95 |
| O=C(O)CC1CCCCCCCCCCC1=O (stereo not drawn) | 124 |
| C#CC(O)c1ccc(C(=O)OC)s1 (stereo not drawn) | 67 |
| COC(=O)C1NC(C(=O)OC)C(C(=O)OC)NC1C(=O)OC (stereo not drawn) | 162 to 163 |
| COc1ccc(-c2nc(Cn3cnnc3)nc3cc(OC)c(OC)cc23)cc1 | 212 to 213 |
| CNC(=O)NC1(C)CCCc2ccccc21 (stereo not drawn) | 183 to 186 |
| CNC(=S)N1CCc2ncn(C)c2C1 | 235 |
| Cc1cc(C)nc(NC(=O)c2ccncc2)c1 | 142 |
| CCNC(=O)n1nc(Oc2ncc(C(F)(F)F)cc2Cl)c(Br)c1C | 123 to 125 |
| O=C(Nc1ccc(-c2ncc(-c3ccc(NC(=O)C4CCCCCC4)cc3)[nH]2)cc1)c1cccnc1 | 326 to 328 |
| O=Cc1cc(O)c(O)cc1Cl | 217 to 218 |
| [N-]=[N+]=NC1CC(n2cnc3c(NCC4CC4)nc(N)nc32)OC1CO (stereo not drawn) | 104 to 106 |
| CS(=O)(=O)c1ccc(-c2sc(-c3ccncc3)nc2-c2ccc(F)cc2)cc1 | 171 to 176 |
| c1cc(-c2ccnc3nccn23)ccn1 | 244 to 245 |
| Cc1cc2cc(Nc3ccnc4cc(-c5ccc(C=O)cc5)sc34)ccc2[nH]1 | 223 to 240 |
| CCCCOc1ccc(S(=O)(=O)N2CCC(O)C2)cc1 (stereo not drawn) | 83 to 84 |
| O=[N+]([O-])c1cnccc1NCc1ccc(F)cc1 | 137 |
| Nc1cc(-c2ccc(Cl)c(Cl)c2)[nH]n1 | 169 to 170 |
| Clc1cc2c(cc1Cl)CC=C2 | 76 |
| CC1(C)C(=O)Nc2cc3[nH]c(C4=CCCC4)nc3cc21 | 233 to 235 |
| CC(=O)NC1CC(C)(C)NC(C)(C)C1 | 100 to 102 |
| CC(C)(C)c1cc(-c2ccc(N)cc2)cc(C(C)(C)C)c1O | 113 to 114 |
| Fc1cccc2[nH]cc(C3CCC4(CC3)OCCO4)c12 | 161 to 162 |

Now from value to molecule:

| melting point [°C] | SMILES |
| --- | --- |
| 210 to 211 | Nc1ccc(Nc2ncnc3cc(-c4ccccc4)sc23)cc1 |
| 156 to 158 | Cc1c(-c2ccnc(-c3ccc4c(n3)CCCC4)n2)ccc2ccccc12 |
| 155 to 157 | Cc1ccccc1C1CC(=O)CC(c2ccccc2C)N1C (stereo not drawn) |
| 124 to 125 | Cc1c(C(=O)NCC(N)=O)cccc1-c1cccc2cc(Cc3cccc(C(F)(F)F)c3)sc12 |
| 111 to 112 | COC(=O)c1cncnc1NCc1ccncc1 |
| 58 to 59 | COc1ccc(CS(=O)(=O)C(C)(Cc2ccccc2)C(=O)O)cc1 (stereo not drawn) |
| 108 to 110 | CCOC(=O)N(O)Cc1cccc(Nc2ccccc2C(=O)OC)c1Cl |
| 176 | COc1cc(C(=O)c2ncc3c(C(=O)N(C)C)cccn23)ccc1[N+](=O)[O-] |
| 155 to 157 | COC(=O)C1=CN(c2ccc(O)cc2)C(C2CC=CCC2)CC1=O (stereo not drawn) |
| 103 | O=c1ccc2ccc(OCCCCCc3ccccc3)cc2o1 |
| 212 to 214 | COc1ccc(Cc2n[nH]c(=O)c3ccccc23)cc1N |
| 127 to 129 | CSC(=NC(=O)c1ccccc1)Nc1c(Cl)cccc1Cl |
| 151 to 152 | Cc1ccc(S(=O)(=O)n2ccc3cc(-c4ccccc4)cnc32)cc1 |
| 97 to 101 | CNC(=S)C1=C(O)C(COC)(COC)Oc2ccc([N+](=O)[O-])cc21 |
| 65 to 66 | CCOC(=O)/C=C(/c1ccc(OC)cc1)c1cc(F)cc(F)c1 |
| 160 | COc1ccc(-c2oc3ccc(CC(=O)N4CCN(c5ccccc5)CC4)cc3c2SC)cc1OC |
| 145 to 147 | CCn1cc(Br)nc(S(=O)(=O)Cc2ccc(Cl)cc2)c1=O |
| 187 to 189 | O=C(c1ccc(Cl)cc1)c1c(N2C(=O)c3ccccc3C2=O)sc(-c2ccccc2)c1CN1CCCCC1 |
| 230 to 231 | Cn1cc(S(N)(=O)=O)c(=O)c2ccccc21 |
| 78 to 79 | O=c1cc(N2CCOc3ccccc32)oc2c1ccc1ccccc12 |
| 96 | CC(C)(C)NCC(O)COc1ccccc1CCCc1cccc2[nH]ccc12 (stereo not drawn) |
| 109 to 111 | COc1cc(CCNC(=O)N(C)O)ccc1OCc1ccccc1 |
| 113 to 116 | COc1ccc(S(=O)(=O)Nc2ccccc2Nc2ccccn2)cc1 |
| 100 to 104 | CCCc1nn(C)c2c(=O)n(CCOc3ccc(NC(C)C(=O)OCC)cc3)c(CC)nc12 (stereo not drawn) |
| 94 to 95 | C[Si](C)(C)c1cccc(C[C@@H]2N[C@@H](c3ccccc3)[C@@H](c3ccccc3)OC2=O)c1 |
| 95 to 97 | COc1cc(CC(=O)NCCOc2ccc(C)c(C)c2)ccc1OCCN |
| 108 to 109 | CN(O)C(=O)NCCc1ccc(Cl)c(Cl)c1 |
| 176 to 177 | O=C(O)c1ccc(OCc2cccc(Cl)c2)cn1 |

| melting point [°C] | SMILES |
| --- | --- |
| 111 to 113 | CCOC(=O)Nc1c(Cl)cc(OC)c(OC)c1C(=O)OCC |
| 215 to 217 | CCOC(=O)c1cn(C2CC2)c2c(Cl)c(F)c(Cl)cc2c1=O |
| 92 to 93 | Cc1cc(-c2oncc2CO)ccc1Cl |
| 87.5 to 89.5 | CC(=O)c1ccc(S(=O)(=O)N(CCO)CCO)cc1 |
| 215 to 217 | CCCCc1nc(CO)c(C(=O)O)n1Cc1ccc(-c2ccccc2-c2nnn[nH]2)cc1 |
| 196 | CN(C)C(=O)C(C#N)=C1Nc2ccccc2O1 |
| 163 to 165 | CCOC(=O)c1cc(NCc2ccccc2)c(OCC(F)(F)F)c(S(N)(=O)=O)c1 |
| 132 to 135 | COc1ccc(N(S(C)(=O)=O)S(C)(=O)=O)cc1CN1CCC(=O)C(C(c2ccccc2)c2ccccc2)C1 (stereo not drawn) |
| 150 to 151 | O=C(O)C1=NC(c2ccc(Cl)cc2Cl)N(c2ccc(Cl)cc2)C1 (stereo not drawn) |
| 184 to 186 | O=C(c1ccccc1)c1ccc(OCc2nnn[nH]2)c(Cl)c1Cl |
| 91 | C[C@@H](NC(=O)C1(C)CC1)c1ccc2ccccc2c1 |
| 114 to 115 | O=C(O)c1ccccc1Oc1ccc(Cl)cc1 |
| 275 to 277 | C[C@@H]1CN(Cc2ccc(F)cc2)CCN1C(=O)/C=C/c1ccc(Cl)cc1NC(=O)N1CCNC1=O |
| 159 to 161 | CC(C)(C)NC(=O)[C@@H]1CCCN1C(=O)[C@@H](O)[C@@H](N)Cc1ccccc1 |
| 144 | CC(C)n1nc(-c2c(-c3ccccc3)nn3ccc(OCCN4CCCCC4)cc23)ccc1=O |
| 194 | CSc1nc2ccnn2c(OCc2ccccc2)c1C#N |
| 220 to 223 | CCn1c(=O)c(-c2cc(C)cc(C)c2)cc2cnc(Nc3ccccc3)nc21 |
| 23 | COC(=O)CCCS(=O)(=O)c1ccc(C)cc1 |
| 126 | COc1ccc(-c2cncc(OC3SCC(OC(C)=O)C(OC(C)=O)C3OC(C)=O)c2)c(Cl)c1 (stereo not drawn) |
| 65 to 67 | CC(C)(Oc1ccc(CN(Cc2ccccc2)c2ccc(Cl)cc2)cc1)C(=O)O |
| 255 | N#CC1=C(c2ccccc2)Nc2n[nH]cc2C1c1cccc2c1OCCC2 (stereo not drawn) |
| 138 to 140 | CCOc1ccc(-c2nc(-c3ccc(OC4OC(CO)C(O)C(O)C4O)cc3)cs2)cc1OCC (stereo not drawn) |
| 96 | COc1ccc(C=C(CSC(C)=O)C(=O)NCCC(=O)OCc2ccccc2)cc1 |
| 126 to 127 | CCOC(=O)C1CCN(c2nc(COc3ccc(COc4nn(-c5ccccc5)cc4C=O)cc3OC)c(C)s2)CC1 |
| 256 to 259 | Cc1cccc(-c2nc(Nc3ccc(Cl)cc3)c3ccccc3n2)n1 |
| 136 to 137 | CN(C)Cc1cc(-c2ccccc2)c(O)c(-c2ccccc2)c1 |
| 80.5 to 89.9 | CNN1c2c(cc(Oc3ccc(F)cc3F)c(=O)n2NC)C=NC1SCc1ccccc1 (stereo not drawn) |

— a melting point compilation (Tetko et al.; mined from patent text by program, amines drawn as free bases though some values may be those of a salt)
